Source: patent publication US10280149B2, “Therapeutic compounds and uses thereof” (GENENTECH, INC., priority 2015, dated 2019)

Target: Full length KDM2B (Homo sapiens (Human), UniProt Q8NHM5)
Test: KDM2B TR-FRET assay for determining inhibitor IC50
Format: biochemical
Details: TR-FRET (HTRF), biotin-H3K36me2 peptide substrate, 2-OG 0.3 μM or 6 μM
Excerpt: KDM2B TR-FRET Assay for Determining Inhibitor IC50
The KDM2B TR-FRET Assay described above represents an additional embodiment of the invention.

Chain of Full length KDM2B (Q8NHM5 whole entry): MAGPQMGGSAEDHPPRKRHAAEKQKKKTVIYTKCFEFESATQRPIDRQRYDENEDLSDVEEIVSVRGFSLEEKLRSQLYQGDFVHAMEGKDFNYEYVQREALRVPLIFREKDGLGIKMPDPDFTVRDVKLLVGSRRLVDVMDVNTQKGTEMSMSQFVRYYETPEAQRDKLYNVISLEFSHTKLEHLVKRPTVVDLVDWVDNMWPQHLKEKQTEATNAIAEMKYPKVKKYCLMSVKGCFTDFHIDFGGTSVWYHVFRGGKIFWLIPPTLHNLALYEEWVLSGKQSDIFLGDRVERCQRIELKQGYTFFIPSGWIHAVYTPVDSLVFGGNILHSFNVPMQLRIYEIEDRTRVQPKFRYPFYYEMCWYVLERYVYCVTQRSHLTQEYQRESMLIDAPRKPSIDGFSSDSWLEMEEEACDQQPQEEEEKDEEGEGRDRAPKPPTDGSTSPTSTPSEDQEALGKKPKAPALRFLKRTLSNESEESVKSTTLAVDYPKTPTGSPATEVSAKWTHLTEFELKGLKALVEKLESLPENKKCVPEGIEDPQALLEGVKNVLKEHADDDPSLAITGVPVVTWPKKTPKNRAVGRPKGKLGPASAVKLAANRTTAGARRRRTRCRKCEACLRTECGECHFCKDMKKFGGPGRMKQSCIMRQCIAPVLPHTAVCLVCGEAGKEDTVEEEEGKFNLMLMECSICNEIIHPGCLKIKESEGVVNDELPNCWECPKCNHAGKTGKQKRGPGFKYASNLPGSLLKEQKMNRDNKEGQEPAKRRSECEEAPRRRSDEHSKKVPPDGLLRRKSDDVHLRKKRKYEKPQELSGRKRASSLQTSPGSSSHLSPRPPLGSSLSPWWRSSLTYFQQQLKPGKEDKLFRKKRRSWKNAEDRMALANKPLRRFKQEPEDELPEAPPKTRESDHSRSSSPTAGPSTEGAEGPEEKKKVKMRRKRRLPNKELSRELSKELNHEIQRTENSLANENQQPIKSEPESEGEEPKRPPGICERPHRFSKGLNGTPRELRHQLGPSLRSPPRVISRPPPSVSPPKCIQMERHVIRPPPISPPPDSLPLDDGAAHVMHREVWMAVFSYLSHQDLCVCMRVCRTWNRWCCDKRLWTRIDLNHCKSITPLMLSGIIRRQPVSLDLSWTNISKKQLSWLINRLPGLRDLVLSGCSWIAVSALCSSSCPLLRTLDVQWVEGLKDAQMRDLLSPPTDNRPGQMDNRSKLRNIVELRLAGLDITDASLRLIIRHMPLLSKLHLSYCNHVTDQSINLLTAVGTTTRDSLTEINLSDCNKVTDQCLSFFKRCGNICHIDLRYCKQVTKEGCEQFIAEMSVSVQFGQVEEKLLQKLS

## Cc1c(C#N)ccc2cc(C(=O)C3CCCN(CC4CC4)C3)ccc12 (centres unmarked) [Example 71, 6-(1-(cyclopropylmethyl)piperidine-3-carbonyl)-1-methyl-2-naphthonitrile]
  IC50: 132 nM

## COc1ccc2cc(C(=O)[C@@H]3CN(C4CCC4)CC[C@@H]3CC(C)C)ccc2c1CC#N (stereo in doubt) [Example 185a, 2-(6-(1-cyclobutyl-4-isobutylpiperidine-3-carbonyl)-2-methoxynaphthalen-1-yl)acetonitrile]
  IC50: 53.5 nM

## O=C(c1ccc2c(OCc3ccccc3)cccc2c1)C1CCCN(CC2CC2)C1 (centres unmarked) [Example 123, (5-(benzyloxy)naphthalen-2-yl)(1-(cyclopropylmethyl)piperidin-3-yl)methanone]
  IC50: 90.9 nM

## CC(O)c1cc(C(=O)C2CCCN(C3CCC3)C2)cc2ccccc12 (centres unmarked) [Example 64, (1-cyclobutyl-3-piperidyl)-[4-(1-hydroxyethyl)-2-naphthyl]methanone]
  IC50: 43.8 nM

## Cc1ccc2cc(C(=O)C3CCCN(C4CCCC4)C3)ccc2c1 (centres unmarked) [Example 166, (1-cyclopentylpiperidin-3-yl)(6-methylnaphthalen-2-yl)methanone]
  IC50: 240 nM

## CC[C@@H]1CCN(C2CCC2)C[C@@H]1C(=O)c1ccc2c(CC#N)c(OC)ccc2c1 (stereo in doubt) [Example 183c, 2-(6-(1-cyclobutyl-4-ethylpiperidine-3-carbonyl)-2-methoxynaphthalen-1-yl)acetonitrile]
  IC50: 78 nM

## O=C(c1cccc(Oc2ccccc2)c1)[C@@H]1CCCN(CC2CC2)C1 [Example 29, [(3R)-1-(cyclopropylmethyl)-3-piperidyl]-(3-phenoxyphenyl)methanone]
  IC50: 148 nM

## Cc1noc2cc(C(=O)C3CCCN(CC4CC4)C3)ccc12 (centres unmarked) [Example 129, (1-(cyclopropylmethyl)piperidin-3-yl)(3-methylbenzo[d]isoxazol-6-yl)methanone]
  IC50: 492 nM

## O=C(c1ccc2ccccc2n1)[C@@H]1CCCN(CC2CC2)C1 (stereo in doubt) [Example 117b, (1-(cyclopropylmethyl)piperidin-3-yl)(quinolin-2-yl)methanone]
  IC50: 750 nM

## COc1ccc2cc(C(=O)[C@@]3(O)CCCN(CC4CC4)C3)ccc2c1 (stereo in doubt) [Example 158a, (1-(cyclopropylmethyl)-3-hydroxypiperidin-3-yl)(6-methoxynaphthalen-2-yl)methanone]
  IC50: 1900 nM

## O=C(c1cc2ccccc2s1)C1CCCN(CC2CC2)C1 (centres unmarked) [Example 120, Benzo[b]thiophen-2-yl(1-(cyclopropylmethyl)piperidin-3-yl)methanone]
  IC50: 389 nM

## COc1ccc2cc(C(=O)C3CN(CC4CC4)CCC3C(F)(F)F)ccc2c1 (single isomer, unassigned) [Example 138b, (1-(cyclopropylmethyl)-4-(trifluoromethyl)piperidin-3-yl)(6-methoxynaphthalen-2-yl)methanone]
  IC50: 4800 nM

## COc1ccc2cc(C(=O)C3CN(C4CCC4)CCC3c3ccccc3)ccc2c1 (single isomer, unassigned) [Example 141b, (1-cyclobutyl-4-phenylpiperidin-3-yl)(6-methoxynaphthalen-2-yl)methanone]
  IC50: 98.7 nM

## COc1ccc2cc(C(=O)[C@H]3C[C@@H](C)CN(CC4CC4)C3)ccc2c1 (single isomer, unassigned) [Example 139a, (1-(cyclopropylmethyl)-5-methylpiperidin-3-yl)(6-methoxynaphthalen-2-yl)methanone]
  IC50: 333 nM

## CS(=O)(=O)c1ccc2cc(C(=O)C3CCCN(CC4CC4)C3)ccc2c1 (centres unmarked) [Example 169, (1-(cyclopropylmethyl)piperidin-3-yl)(6-(methylsulfonyl)naphthalen-2-yl)methanone]
  IC50: 112 nM

## CCCN1CCCC(C(=O)c2cccc(OCc3ccccc3)c2)C1 (centres unmarked) [Example 95, (3-benzyloxyphenyl)-(1-propyl-3-piperidyl)methanone]
  IC50: 823 nM

## COc1ccc(C(=O)[C@@H]2CCCN(CC3CC3)C2)cc1 (stereo in doubt) [Example 110b, (1-(cyclopropylmethyl)piperidin-3-yl)(4-methoxyphenyl)methanone]
  IC50: 5300 nM
